In brackets after ≈: the same amount, converted by molar mass.
Legend:
[1] = Cyclic voltammetry, redox couple potential; format: physicochemical; conditions: neutral aqueous solution
Description: Cyclic voltammetry was performed at 0.05 V/s with a glassy carbon working electrode.

[2] = Electrolyte stability: repeated cycling overnight, cyclic voltammograms before and after; format: physicochemical; conditions: 300 mM DMTU, 0.45 M HCl, no significant peak changes in the cyclic voltammograms
Description: Cyclic voltammograms were obtained before and after the overnight test—initial E (V)=0, high E (V)=1, low E (V)=−0.8, initial P/N=P, scan rate (V/s)=0.05, segment=3, sample interval (V)=0.001, quiet time (s)=2, […].

[3] = Cyclic voltammetry comparison of N-methyl thiourea and N,N′-dimethyl thiourea catholytes; format: physicochemical; conditions: 200 mM in 1 M NaCl, scan rate 0.05 V/s
Description: Aqueous catholytes comprising 200 mM MTU and 200 mM DMTU were compared. Each catholyte also included 1 M NaCl. Cyclic voltammetry was performed under the following conditions: initial E (V)=0, high E (V)=1, low E (V)=−0.75, initial P/N=P, scan rate (V/s)=0.05, segment=7, sample interval (V)=0.001, quiet time (s)=2, sensitivity (A/V)=0.001.

physchem = conditions: aqueous buffer

| SMILES | one electron redox couple [1] [V vs. SHE] | stability in acid solutions [2] | kinetics, reversibility and overpotential compared with MTU [3] | solubility (physchem) [mM] |
| --- | --- | --- | --- | --- |
| CC1(C)CC(O)CC(C)(C)N1[O] [HTMPO, 4-hydroxy-2,2,6,6-tetramethylpiperidine 1-oxyl] | 0.75 | – | – | – |
| CNC(=S)NC [DMTU, N,N′-dimethyl thiourea] | – | good stability | better kinetics, with better reversibility and a lower overpotential | ~4000 (≈ 417 mg/mL) |

Source: patent US9793566B2, “Aqueous electrolytes for redox flow battery systems” (Battelle Memorial Institute, priority 2015, dated 2017)
